In brackets after ≈: the same amount, converted by molar mass.
Legend:
[1] = test system: E. coli NCTC 10418; test: MIC by serial dilution in nutrient agar with 5% chocolated horse blood; assay type: cell-based; conditions: Escherichia coli, NCTC10418; Table 1; read-out: MIC
[2] = test system: Ps. aeruginosa 10662; test: as above; assay type: cell-based; conditions: Pseudomonas aeruginosa, Table 1, read-out: MIC
[3] = test system: Haemophilus influenzae Q1; test: as above; assay type: cell-based; conditions: Table 1
[4] = test system: Haemophilus influenzae Wy21; test: as above; assay type: cell-based; conditions: Table 1, read-out: MIC
[5] = test system: Neisseria catarrhalis 1502; test: as above; assay type: cell-based; conditions: Table 1, read-out: MIC
[6] = test system: Corynebacterium xerosis 9755; test: as above; assay type: cell-based; conditions: Table 1
[7] = test system: Sarcina lutea 8340; test: as above; assay type: cell-based; conditions: Micrococcus luteus, Table 1, read-out: MIC
[8] = test system: Staph. aureus Oxford; test: as above; assay type: cell-based; conditions: Staphylococcus aureus; Table 1
[9] = test system: Staph. aureus Russell; test: as above; assay type: cell-based; conditions: Staphylococcus aureus; Table 1
[10] = test system: Staph. aureus W2827; test: as above; assay type: cell-based; conditions: Staphylococcus aureus, Table 1
[11] = test system: Strep. faecalis; test: as above; assay type: cell-based; conditions: Enterococcus faecalis; Table 1; read-out: MIC
[12] = test system: Strep. pyogenes B 2788; test: as above; assay type: cell-based; conditions: Streptococcus pyogenes, B2788; Table 1
[13] = test system: Strep. pyogenes C 2761; test: as above; assay type: cell-based; conditions: Streptococcus pyogenes, C2761; Table 1
[14] = test system: Strep. pneumoniae CN33; test: as above; assay type: cell-based; conditions: Streptococcus pneumoniae, Table 1
[15] = test system: M.suipneumoniae NB12; test: in vitro MIC by serial dilution in Friis modified agarose medium; assay type: cell-based; conditions: Mesomycoplasma hyopneumoniae, Table 3
[16] = test system: M. siupneumoniae HK(2); test: as above; assay type: cell-based; conditions: Table 3
[17] = test system: M. suipneumoniae Str. 11; test: as above; assay type: cell-based; conditions: Mesomycoplasma hyopneumoniae, Table 3
[18] = test system: M. suipneumoniae J2206/183b; test: as above; assay type: cell-based; conditions: Mesomycoplasma hyopneumoniae, Table 3
[19] = test system: M. suipneumoniae MS 16; test: as above; assay type: cell-based; conditions: Mesomycoplasma hyopneumoniae, MS16; Table 3
[20] = test system: M. suipneumoniae PW/C/210; test: as above; assay type: cell-based; conditions: Mesomycoplasma hyopneumoniae; Table 3
[21] = test system: M. suipneumoniae LABER; test: as above; assay type: cell-based; conditions: Mesomycoplasma hyopneumoniae; Table 3
[22] = test system: M. suipneumoniae UCD 1; test: as above; assay type: cell-based; conditions: Mesomycoplasma hyopneumoniae, UCD1; Table 3
[23] = test system: M. suipneumoniae TAM 6N; test: as above; assay type: cell-based; conditions: Mesomycoplasma hyopneumoniae, TAM6N; Table 3
[24] = test system: M. hyorhinis ATCC 23234; test: as above; assay type: cell-based; conditions: Mesomycoplasma hyorhinis, ATCC23234; Table 3
[25] = test system: M. hyorhinis ATCC 25021; test: as above; assay type: cell-based; conditions: Mesomycoplasma hyorhinis, ATCC25021; Table 3
[26] = test system: M. dispar NCTC 10125; test: as above; assay type: cell-based; conditions: Table 3; read-out: MIC
[27] = test system: M. gallisepticum S6; test: as above; assay type: cell-based; conditions: Mycoplasmoides gallisepticum, Table 3
[28] = test system: M. pneumoniae ATCC 15492; test: as above; assay type: cell-based; conditions: Mycoplasmoides pneumoniae, ATCC15492; Table 3
[29] = Serum binding by ultrafiltration; assay type: in vitro ADME; conditions: pig, 8 mcg/ml, read-out: % Bound to Pig Serum (converted)
Description: Serum binding was assessed by ultrafiltration of procine serum containing compounds at 8 mcg/ml, and through an Amicon CF50A ultrafiltration cone. Separation of ultrafiltrate was achieved by centrifugation. Unbound concentrations of compound were measured in the ultrafiltrate by microbiological assay (B. subtilis ATCC 6633) against standards prepared in saline.

[30] = test system: E. coli NCTC 10418; test: MIC by agar dilution, veterinary bacteria; conditions: Escherichia coli, NCTC10418, 24 h
[31] = test system: E. coli E1; test: MIC by agar dilution, veterinary bacteria; conditions: Escherichia coli, E1, 24 h
[32] = test system: S.dublin S7; test: MIC by agar dilution, veterinary bacteria; conditions: Salmonella enterica, S7, 24 h
[33] = test system: Bord. bronchiseptica B08; test: MIC by agar dilution, veterinary bacteria; conditions: Bordetella bronchiseptica, B08, 24 h
[34] = test system: Bord. bronchiseptica B09; test: MIC by agar dilution, veterinary bacteria; conditions: Bordetella bronchiseptica, B09, 24 h
[35] = test system: Past. multocida PA1; test: MIC by agar dilution, veterinary bacteria; conditions: Pasteurella multocida, PA1, 24 h
[36] = test system: Past. multocida PA2; test: MIC by agar dilution, veterinary bacteria; conditions: Pasteurella multocida, PA2, 24 h
[37] = test system: Past. haemolytica PA5; test: MIC by agar dilution, veterinary bacteria; conditions: Mannheimia haemolytica, PA5, 24 h
[38] = test system: Corynebacterium pyogenes CY1; test: MIC by agar dilution, veterinary bacteria; conditions: CY1, 24 h
[39] = test system: Staph. aureus 152 (pen sens); test: MIC by agar dilution, veterinary bacteria; conditions: Staphylococcus aureus, 24 h
[40] = test system: Strep. uberis SPU1; test: MIC by agar dilution, veterinary bacteria; conditions: Streptococcus uberis, SPU1, 24 h
[41] = test system: Strep. agalactiae SPA1; test: MIC by agar dilution, veterinary bacteria; conditions: Streptococcus agalactiae, SPA1, 24 h

CC(=O)C=C(C)CC1OCC(CC2OC2C(C)C(C)O)C(O)C1O [Example 1, 1-[3R,4R-Dihydroxy-5S-(2S,3S-epoxy-5S-hydroxy-4S-methylhexyl)-2,3,5,6-tetrahydropyran-2-S-yl]-2-methylpent-2E-en-4-one]
MIC [1]: > 100 µg/mL | MIC [2]: > 100 µg/mL | MIC [3]: 0.5 µg/mL (≈ 1.46 µM) | MIC [4]: 1 µg/mL (≈ 2.92 µM) | MIC [5]: 0.2 µg/mL (≈ 0.584 µM) | MIC [6]: > 100 µg/mL | MIC [7]: > 100 µg/mL | MIC [8]: 1 µg/mL (≈ 2.92 µM) | MIC [9]: 5 µg/mL (≈ 14.6 µM) | MIC [10]: > 100 µg/mL | MIC [11]: > 100 µg/mL | MIC [12]: 50 µg/mL (≈ 146 µM) | MIC [13]: 100 µg/mL (≈ 292 µM) | MIC [14]: 25 µg/mL (≈ 73 µM) | MIC [15]: > 10 µg/mL | MIC [16]: > 10 µg/mL | MIC [17]: 5 µg/mL (≈ 14.6 µM) | MIC [18]: > 10 µg/mL | MIC [19]: 10 µg/mL (≈ 29.2 µM) | MIC [20]: 10 µg/mL (≈ 29.2 µM) | MIC [21]: 5 µg/mL (≈ 14.6 µM) | MIC [22]: > 10 µg/mL | MIC [23]: > 10 µg/mL | MIC [24]: 10 µg/mL (≈ 29.2 µM) | MIC [25]: 10 µg/mL (≈ 29.2 µM) | MIC [26]: 2.5 µg/mL (≈ 7.3 µM) | MIC [27]: > 10 µg/mL | MIC [28]: > 10 µg/mL | fraction unbound [29]: 0.852 | MIC [30]: > 80 µg/mL | MIC [31]: > 80 µg/mL | MIC [32]: > 80 µg/mL | MIC [33]: > 80 µg/mL | MIC [34]: 20 µg/mL (≈ 58.4 µM) | MIC [35]: 5 µg/mL (≈ 14.6 µM) | MIC [36]: 5 µg/mL (≈ 14.6 µM) | MIC [37]: 10 µg/mL (≈ 29.2 µM) | MIC [38]: > 80 µg/mL | MIC [39]: 10 µg/mL (≈ 29.2 µM) | MIC [40]: 20 µg/mL (≈ 58.4 µM) | MIC [41]: > 80 µg/mL

Reference: patent US4312874A, “Antibacterial compounds, processes for their preparation and compositions containing them” (Beecham Group Limited, priority 1979, dated 1982)
